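Compound exposure: 48 hours, 5 concentrations, 96-well plates. GI50: concentration for 50% inhibition of growth. TGI denotes the concentration required for complete inhibition of growth.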 Where a SMILES comes first, the peptide text is derived from it. The star is where a group is joined. Cbz = O=C(OCc1ccccc1)*
How the values were obtained:
Experiment in all cases: NCI-60 cell line screen, 48 h
[1] = test system: HCT-15 colon
[2] = test system: RPMI-8226 leukemia
[3] = test system: KM12 colon
[4] = test system: HS 578T breast
[5] = test system: SNB-19 CNS
[6] = test system: CAKI-1 renal
[7] = test system: MOLT-4 leukemia
[8] = test system: NCI-H226 lung
[9] = test system: TK-10 renal
[10] = test system: COLO 205 colon

Row | SMILES | TGI [1] [µM] | TGI [2] [µM] | TGI [3] [µM] | TGI [4] [µM] | TGI [5] [µM] | TGI [6] [µM] | TGI [7] [µM] | TGI [8] [µM] | TGI [9] [µM] | TGI [10] [µM] | GI50 [1] [µM] | GI50 [2] [µM] | GI50 [3] [µM] | GI50 [4] [µM] | GI50 [5] [µM] | GI50 [6] [µM] | GI50 [7] [µM] | GI50 [9] [µM] | GI50 [10] [µM] | GI50 [8] [µM]
1 | CCOC(=O)c1cn2c(ccc3sc4ccccc4c(=O)c32)n1 | > 100 | > 100 | > 100 | > 100 | > 100 | > 100 | > 100 | > 100 | > 100 | > 100 |  |  |  |  |  |  |  |  |  | 
2 | CCCCCCCCCCCCCCCCOc1ccc(/C=C/C2=[N+](CCCl)CCO2)cc1 | > 100 | > 100 | > 100 | > 100 | > 100 | > 100 | > 100 | > 100 | > 100 | > 100 |  |  |  |  |  |  |  |  |  | 
3 | CC(C)N(/C(F)=N\C(=O)Nc1ccccc1C(F)(F)F)C(C)C | > 100 | > 100 | > 100 | > 100 | > 100 | > 100 |  | > 100 | > 100 | > 100 |  |  |  |  |  |  |  |  |  | 
4 | O=C1CCCC2=C1CC1=C(CCCC1=O)N2c1cccc([N+](=O)[O-])c1 | > 100 | > 100 | > 100 | > 100 | > 100 | > 100 | > 100 | > 100 | > 100 |  |  |  |  |  |  |  |  |  |  | 
5 | O=c1[nH]c(=O)n2n1C1C=CC2CC1 | > 100 | > 100 | > 100 | > 100 | > 100 | > 100 | > 100 | > 100 | > 100 | > 100 |  |  |  |  |  |  |  |  |  | 
6 | O=[N+]([O-])c1ccc(O)c(C=NCC2CCCN3CCCCC23)c1 (stereo not given) | > 100 |  | > 100 | 46.6 | > 100 | > 100 |  | 89.9 | > 100 | 75.9 |  |  |  |  |  |  |  |  |  | 
7 | COc1ccc(-c2nc3cc(C(F)(F)F)ccc3n2CC2CCCN3CCCCC23)cc1 (stereo not given) | 29.1 | 28.4 | 45.2 | 31.1 |  | 59.6 | 28.7 | 32.3 | 30.2 |  |  |  |  |  |  |  |  |  |  | 
8 | CCOC(=O)N1N(c2ccccc2)C(=O)C1(c1ccccc1)c1ccccc1 | > 100 | 83.5 | > 100 | > 100 | > 100 | > 100 | > 100 | > 100 | > 100 | > 100 |  |  |  |  |  |  |  |  |  | 
9 | O=P1(Oc2ccccc2)NCc2ncccc2O1 (stereo not given) | > 100 | > 100 | > 100 |  | > 100 | > 100 | > 100 | > 100 |  | > 100 |  |  |  |  |  |  |  |  |  | 
10 | CN(C)/C=C/c1c2c(nc3ccccc13)C(=O)c1ccccc1C2=O | 2.71 | 3.49 | 3.62 | 4.21 | 4.88 | 6.31 | 6.32 | 5.21 | 6 | 5.5 |  |  |  |  |  |  |  |  |  | 
11 | CCN(CC)CC(=O)Nc1ccc2c(c1)C(=O)c1ccc(NC(=O)CN(CC)CC)cc1C2=O | > 100 | > 100 | 70 |  | 81.3 | > 100 | 81.5 |  | > 100 | 54.1 |  |  |  |  |  |  |  |  |  | 
12 | CCOC(=O)CNC(=O)C(C)NC(=O)C(NC(=O)OCc1ccccc1)C(C)C (stereo not drawn) (Cbz-Val-Ala-Gly-OEt; configuration not given here) | > 100 | > 100 | > 100 | > 100 | > 100 | > 100 | > 100 |  | > 100 | > 100 |  |  |  |  |  |  |  |  |  | 
13 | C[C@]12CCc3sc(-c4cccc(F)c4)nc3C1=CC[C@@H]1[C@@H]2CC[C@]2(C)C(=O)CC[C@@H]12 | 4.17 | 5.65 | 17.6 | > 100 | > 100 | 3.76 | 7.89 |  | 8.29 | 5.46 | 1.56 | 1.91 | 3.34 | 3.86 | 4.79 | 1.87 | 1.69 | 2.77 | 2.42 | 
14 | Brc1ccc(-c2cc(-c3ccc4c(c3)OCO4)c(-c3cccs3)n2Cc2ccccc2)cc1 | > 100 | > 100 | > 100 | > 100 | > 100 | > 100 | > 100 |  | > 100 | > 100 |  |  |  |  |  |  |  |  |  | 
15 | CCOC(=O)C1=C(C)NC(C)=C(C(=O)OCC)C1c1ccc(C)cc1 | > 100 | 85.8 | > 100 | > 100 | > 100 | > 100 | 74.6 | > 100 | > 100 |  |  |  |  |  |  |  |  |  |  | 
16 | COc1cc2cc3c4c(cc(OC)c(OC)c4c2cc1OC)CCN3C(=O)CCC(=O)O |  | > 100 | > 100 |  | > 100 | > 100 | > 100 | > 100 | > 100 | > 100 |  |  |  |  |  |  |  |  |  | 
17 | Cc1[nH]c(=O)nc(N(CCO)/N=C/c2ccc(Cl)cc2)c1C(=O)Nc1ccc(Cl)cc1 | > 100 |  | > 100 | > 100 | > 100 | > 100 | > 100 | > 100 | > 100 | > 100 |  |  |  |  |  |  |  |  |  | 
18 | Cc1nn(-c2ccccc2)c2nc3ccc(Cl)cc3c(-c3ccccc3)c12 | > 100 | > 100 | > 100 | > 100 | > 100 |  | > 100 | > 100 | > 100 | > 100 |  |  |  |  |  |  |  |  |  | 
19 | NC(=O)CNC(=O)[C@@H]1C[C@@H](OCCC(=O)O)CN1C(=O)OCc1ccccc1 | > 100 | > 100 | > 100 | > 100 | > 100 |  | > 100 | > 100 | > 100 | > 100 |  |  |  |  |  |  |  |  |  | 
20 | CC(=O)OC(=C(C#N)C#N)c1nccnc1C(C)=O | > 20 |  | 14 | > 20 | > 20 | > 20 | > 20 | 13.7 |  | 11.5 |  |  |  |  |  |  |  |  |  | 
21 | COc1cc2cc(C(=O)N3CC(CCl)c4c3cc(O)c3ccccc43)[nH]c2c(OC)c1OC (stereo not given) | 0.588 | > 50 | > 50 | < 0.005 | 1.12 |  | 0.153 |  | > 50 |  |  |  |  |  |  |  |  |  |  | 
22 | CCc1c(C)c2ccc(OCC(=O)N=Nc3c(O)[nH]c4ccccc34)c(C)c2oc1=O |  | 2.27 |  |  |  | > 33.3 | > 33.3 | > 33.3 | > 33.3 |  |  | 0.936 |  |  |  | > 33.3 | 1.15 | > 33.3 |  | > 33.3

Reference: PubChem BioAssay (NCI)
